Data from US8952003B2, “Sterol derivative” (Kyowa Hakko Kirin Co., Ltd, priority 2009, dated 2015).

Tested on: Rat adult neural stem cell line ANSC-7 cells
Experiment: Proliferation promoting activity on neural stem cells (Test Example 1)
Format: cell-based
Details: relative value, negative control (DMSO) = 100%, wells without cells = 0%, absorbance at 490 nm; for activity at 0.01 µM: at 10 nmol/L; for activity at 0.001 µM: at 1.0 nmol/L; for activity at 0.1 µM: at 100 nmol/L
Method: Rat adult neural stem cell line ANSC-7 cells prepared by the method described in the following Reference Test Example 1 were suspended in assay medium at a density of 1.6×10^5 cells/mL; inoculated at 0.1 mL in a 96 well plate (manufactured by Costar) of which surface was coated with polyornithine and laminin; and cultured overnight at 37° C. under an atmosphere of 5% CO2. Thereafter, 50 μL of the culture supernatant was removed, and 50 μL of a test compound which was serially diluted with the assay medium to 2 times of the final concentration or DMSO (negative control) was added to each well. For the serial dilution of a test compound, non-specific adsorption was minimized by using ProteoSave 96 U plates (manufactured by SUMILON), siliconized 1.5 mL tubes (manufactured by Assist) and Pitarack siliconized tips (manufactured by Nacalai). After the culturing for 48 hours, 50 μL of the culture supernatant was replaced by 50 μL of the assay medium containing 0.1% bovine fetal serum. Furthermore, after the culturing for 48 hours, Living Cell Count Reagent SF (manufactured by Nacalai Tesque) was added at the volume of 10 μL per well to the medium. After the culturing for 3 hours at 37° C. in the incubator which was set at 5% CO2, the resulting solution was stirred for one minute and then the absorbance at 490 nm (control wavelength 655 nm) was measured by using Microplate Spectrophotometer Emax (manufactured by Molecular Devices). By regarding the measured value of well to which the cells were not inoculated as 0%, and the measured value of negative control as 100%, relative values in the test compound addition group were calculated.
After putting a 7-week-old Sprague Dawley Rat to sleep by ether anesthesia and subsequent decapitation, the skull was cut open from the parietal region to extract the brain. Under a microscope, tissues including circumventricular region were isolated from the extracted brain by using ophthalmic scissors and tweezers. The tissues including circumventricular region were cut into fragments of about 1 mm^3 using ophthalmic scissors and scalpels and then subjected to 30 minutes of digestion reaction at 37° C. in 5 mL of Hanks' buffer (HBSS buffer, manufactured by Invitrogen) containing 2.5 U/mL of papain, 250 U/mL of DNase (all manufactured by Worthington, Freehold, N.J.) and 1 U/mL of a neutral protease (Dispase, manufactured by Boehringer-Mannheim Corp.). The mixture of cells and tissues obtained by the reaction was washed three times with DMEM (manufactured by Invitrogen) containing 10% fetal bovine serum (manufactured by Hyclone) and then dissolved in the DMEM containing 10% fetal bovine serum, followed by removing the undigested materials using a nylon mesh of […].
The resulting crude cells extract was cultured overnight on a culture dish of 10 cm, in an incubator of 37° C. using DMEM/F12 medium (manufactured by Invitrogen) containing 10% fetal bovine serum. On the next day, the medium was replaced with DMEM/F12 containing 1% of N-2 additives (manufactured by Invitrogen) and 20 ng/mL of FGF 2 (manufactured by Pepro Tech) and the culturing was started. Once in 3 days, half of the medium was replaced with new DMEM/F12 containing 1% of N-2 additives and 20 ng/mL of FGF 2 and the culturing was continued.
When a small colony consisting of small cells was formed, it was treated with 1% trypsin for 30 seconds to 1 minute, and the cells detached were harvested. The harvested cells were inoculated on a multiple well culture dish (manufactured by Fisher Scientific) which had been coated at room temperature overnight using 10 μg/mL of polyornithine (manufactured by Sigma) and at 37° C. overnight using 5 μg/mL of mouse EHS tumor-derived laminin (Becton Dickinson), and the culturing was continued.
By continuing the above-mentioned culturing, small cells having small protrusion and thickness were concentrated. The cells were used as adult neural stem cells in the above-mentioned test (Test Example 1).

## CC(CCC[C@H](C)[C@H]1CC[C@H]2C3=C(CC[C@]12C)[C@@]1(C)CC[C@H](O)C[C@@H]1C(=O)O3)C(=O)O (some centres unmarked) [Compound 80, 7-Oxa-3-hydroxy-cholest-8(9)-en-6-on-26-acid]
  activity at 0.01 µM: ≥ 125%

## CC(C)CCC[C@@H](C)[C@H]1CCC2=C3OC(=O)[C@H]4C[C@@H](O)CC[C@]4(C)[C@H]3CC[C@@]21C [Compound 99, (1R,5aS,7S,9aR,9bR,11aR)-7-Hydroxy-9a,11a-dimethyl-1-[(R)-6-methylheptan-2-yl]-2,3,3,5a,6,7,8,9,9a,9b,10,11,11a-dodecahydrobenzo[c]cyclopenta[h]chromen-5(1H)-one]
  activity at 0.001 µM: ≥ 125%

## CC(C)C(C)CC[C@H](C)[C@H]1CC[C@H]2C3=C(CC[C@]12C)[C@@]1(C)CC[C@H](O)C[C@@H]1C(=O)O3 (stereo in doubt) [Compound 76, 7-Oxa-ergosta-8(9)-en-6-on-3-ol]
  activity at 0.01 µM: ≥ 125%

## CC(C)CCC[C@@H](C)[C@H]1CC[C@@H]2[C@]1(C)CC[C@@]13O[C@@]21OC(=O)[C@H]1CC(=O)CC[C@@]13C [Compound 94, (5S,8S,9S)-7-Oxa-8,9-epoxy-3,6-cholestadione]
  activity at 0.01 µM: ≥ 125%

## CC(CO)CCC[C@H](C)[C@H]1CC[C@H]2C3=C(CC[C@]12C)[C@@]1(C)CC[C@H](O)C[C@@H]1C(=O)O3 (some centres unmarked) [Compound 79, 7-Oxa-cholest-8(9)-en-6-on-3,26-diol]
  activity at 0.001 µM: ≥ 125%

## CC(C)CCC[C@@H](C)[C@H]1CC[C@H]2C3=C(CC[C@]12C)[C@@]1(C)CCNC(=O)C[C@@H]1C(=O)O3 [Compound 34, (1R,3aR,5aS,10aS,12aR)-10a,12a-Dimethyl-1-[(R)-6-methylheptan-2-yl]-1,2,3,3a,5a,6,9,10,10a,11,12,12a-dodecahydro-8-azacyclohepta[c]cyclopenta[h]chromen-5,7-dione]
  activity at 0.01 µM: ≥ 125%

## CC(C)CCC[C@@H](C)[C@H]1CC[C@H]2[C@H]3OC(=O)[C@H]4CC(=O)CC[C@]4(C)[C@H]3CC[C@]12C [Compound 93, (1R,3aR,3bR,5aS,9aR,9bR,11aR)-9a,11a-Dimethyl-1-[(R)-6-methylheptan-2-yl]dodecahydrobenzo[c]cyclopenta[h]chromen-5,7(3bH,8H)-dione]
  activity at 0.1 µM: ≥ 125%

## CC(C)CCC[C@H](C)[C@H]1CC[C@H]2C3=C(CC[C@]12C)[C@@]1(C)CCC(=NO)CC1C(=O)O3 (stereo partly drawn) [Compound 3, (S)-3-Hydroxyimino-7-oxa-8-cholesten-6-one]
  activity at 0.001 µM: ≥ 125%

## CC(C)CCC[C@@H](C)[C@H]1CC[C@H]2C3=C(CC[C@]12C)[C@@]1(C)CC[C@H](OCCO)C[C@@H]1C(=O)O3 [Compound 31, (3S,5S)-3-(2-Hydroxy)ethoxy-7-oxa-8-cholesten-6-one]
  activity at 0.001 µM: ≥ 125%

## COCO[C@H]1CC[C@]2(C)C3=C(OC(=O)[C@H]2C1)[C@@H]1CC[C@H]([C@H](C)CN2CCOCC2)[C@@]1(C)CC3 [Compound 72, (1R,3aR,5aS,7S,9aS,11aR)-7-Methoxymethoxy-9a,11a-dimethyl-1[(S)-1-morpholinopropan-2-yl]-1,2,3,3a,5a,6,7,8,9,9a,11,11a-dodecahydrobenzo[c]cyclopenta[h]chromen-5(10H)-one]
  activity at 0.1 µM: ≥ 125%

## C=CC[C@]12C[C@@H](O)CC[C@]1(C)C1=C(OC2=O)[C@@H]2CC[C@H]([C@H](C)CCCC(C)C)[C@@]2(C)CC1 [Compound 30, (3S,5S)-3-hydroxy-5-allyl-7-oxa-8-cholesten-6-one]
  activity at 0.1 µM: ≥ 125%

## CC(C)CCC[C@@H](C)[C@H]1CC[C@H]2C3=C(CC[C@]12C)[C@@]1(C)C[C@@H](O)C(=O)C[C@@H]1C(=O)O3 [Compound 48, (2R,5S)-2-Hydroxy-7-oxa-8-cholesten-3,6-dione]
  activity at 0.001 µM: ≥ 125%

## C=CCOC[C@@H](C)[C@H]1CC[C@H]2C3=C(CC[C@]12C)[C@@]1(C)CC[C@H](OCOC)C[C@@H]1C(=O)O3 [Compound 66, (1R,3aR,5aS,7S,9aS,11aR)-1-[(S)-1-Allyloxypropan-2-yl]-7-methoxymethoxy-9a,11a-dimethyl-1,2,3,3a,5a,6,7,8,9,9a,11,11a-dodecahydrobenzo[c]cyclopenta[h]chromen-5(10H)-one]
  activity at 0.001 µM: ≥ 125%

## CC(CO)CCC[C@H](C)[C@H]1CCC2=C3OC(=O)[C@H]4C[C@@H](O)CC[C@]4(C)[C@H]3CC[C@@]21C (stereo in doubt) [Compound 90, 7-oxa-cholest-8(14)-en-6-on-3,26-diol]
  activity at 0.01 µM: ≥ 125%

## CC(C)CCC[C@@H](C)[C@H]1CC[C@H]2C3=C(CC[C@]12C)[C@@]1(C)CC[C@H](OCc2ccccc2)C[C@@H]1C(=O)O3 [Compound 47, (3S,5S)-3-Benzyloxy-7-oxa-8-cholesten-6-one]
  activity at 0.1 µM: ≥ 125%

## CC(C)CCC[C@@H](C)[C@H]1CC[C@H]2C3=C(CC[C@]12C)[C@@]1(C)C[C@@H](O)[C@H](O)C[C@@H]1C(=O)O3 [Compound 53, (2R,3R,5S)-2,3-Dihydroxy-7-oxa-8-cholesten-6-one]
  activity at 0.001 µM: ≥ 125%

## COCO[C@H]1CC[C@]2(C)C3=C(OC(=O)[C@H]2C1)[C@@H]1CC[C@H]([C@H](C)CNCC(C)C)[C@@]1(C)CC3 [Compound 69, (1R,3aR,5aS,7S,9aS,11aR)-1-[(S)-1-Isobutylaminopropan-2-yl]-7-methoxymethoxy-9a,11a-dimethyl-1,2,3,3a,5a,6,7,8,9,9a,11,11a-dodecahydrobenzo[c]cyclopenta[h]chromen-5(10H)-one]
  activity at 0.001 µM: ≥ 125%

## COCO[C@H]1CC[C@]2(C)C3=C(OC(=O)[C@H]2C1)[C@@H]1CC[C@H]([C@H](C)CCCCCCO)[C@@]1(C)CC3 [Compound 74, (1R,3aR,5aS,7S,9aS,11aR)-1-[(R)-8-Hydroxyoctan-2-yl]-7-methoxymethoxy-9a,11a-dimethyl-1,2,3,3a,5a,6,7,8,9,9a,11,11a-dodecahydrobenzo[c]cyclopenta[h]chromen-5(10H)-one]
  activity at 0.01 µM: ≥ 125%

## CC(C)CNC[C@@H](C)[C@H]1CC[C@H]2C3=C(CC[C@]12C)[C@@]1(C)CC[C@H](O)C[C@@H]1C(=O)O3 [Compound 83, (1R,3aR,5aS,7S,9aS,11aR)-7-Hydroxy-1-[(S)-1-isobutylaminopropan-2-yl]-9a,11a-dimethyl-1,2,3,3a,5a,6,7,8,9,9a,11,11a-dodecahydrobenzo[c]cyclopenta[h]chromen-5(10H)-one]
  activity at 0.001 µM: ≥ 125%

## CC(C)CCC[C@@H](C)[C@H]1CC[C@H]2C3=C(CC[C@]12C)[C@]1(C)[C@H](C[C@@H](O)[C@H](O)[C@@H]1O)C(=O)O3 [Compound 32, (1R,2S,3R,5S)-1,2,3-trihydroxy-7-oxa-8-cholesten-6-one]
  activity at 0.001 µM: ≥ 125%

## CC(C)CCC[C@@H](C)[C@H]1CC[C@H]2C3=C(CC[C@]12C)[C@]1(C)[C@H](CC=C[C@@H]1O)C(=O)O3 [Compound 21, (1S,5S)-1-Hydroxy-7-oxa-2,8-cholestadien-6-one]
  activity at 0.1 µM: ≥ 125%

## CC(C)C(=O)CC[C@H](C)[C@H]1CC[C@H]2C3=C(CC[C@]12C)[C@@]1(C)CC[C@H](O)C[C@@H]1C(=O)O3 (stereo in doubt) [Compound 78, 7-Oxa-cholest-8(9)-en-6,24-dion-3-ol]
  activity at 0.1 µM: ≥ 125%

## CC(C)COC[C@@H](C)[C@H]1CC[C@H]2C3=C(CC[C@]12C)[C@@]1(C)CC[C@H](O)C[C@@H]1C(=O)O3 [Compound 81, (1R,3aR,5aS,7S,9aS,11aR)-7-Hydroxy-1-[(S)-1-isobutyloxypropan-2-yl]-9a,11a-dimethyl-1,2,3,3a,5a,6,7,8,9,9a,11,11a-dodecahydrobenzo[c]cyclopenta[h]chromen-5(10H)-one]
  activity at 0.001 µM: ≥ 125%
